Data set [1] has as its system 661W-A11 cells stressed with zaprinast. The data set is described as follows: Dose-response curves of cell viability (MTT) under zaprinast stress. In kind it is cell-based, mouse. The protocol: For this analysis, we used the 661W-A11 cells stressed with zaprinast and exposed them to scaling concentrations of either dithio-CN03 or SP-CN03 or CN03-Na^+. The effects were evaluated by the cell viability MTT assay (Figure 5). […] Nevertheless, CN03-Na^+ and SP-CN03 reached up to 70–80% cell viability, while dithio-CN03 could protect rod photoreceptors to almost 100% cell viability at the highest doses (Figure 5). Although dithio-CN03 was considered more hydrophobic, and its entrance in the cells could have been facilitated by this feature, the calculated EC50 was nonetheless similar to more hydrophilic analogues.
661W-A11 cells were seeded in 96-well plates at a density of 6000 cells/well, and the following day they were pretreated with scaling concentrations of either CN03-Na^+ or SP-CN03 or dithio-CN03 for 2 h and then stressed with zaprinast 200 μM in the presence of the compounds for 48 h. Cell viability was assessed by MTT assay (see above for detailed procedure). OD was measured at 570 nm. Data were plotted and EC50 calculated using GraphPad Prism version 7.

Another data set concerns 661W-A11 cells. The data set is described as follows: Toxicity assay, MTT viability of unstressed cells. In kind it is cell-based, mouse. Particulars: 1 μM to 1 mM, 48 h; dithio-CN03 in DMSO, compared to DMSO vehicle. From the text: With the aim of developing a new treatment for RP, we evaluated possible toxic effects of the cGMP analogues on a retinal cell line. The target of the treatment for RP is rod photoreceptors, the cells that die due to increased intracellular levels of cGMP during the progression of retinal degeneration. […] Furthermore, this cell line can be stressed with zaprinast, a phosphodiesterase 6 (PDE6) inhibitor, to increase intracellular cGMP and activate cell death pathways, as found in the RP mutant retina. […] A toxicity test was set up by exposing 661W-A11 cells to increasing doses of the four new TEA salts of CN03: CN03, SP-CN03, oxo-CN03, and dithio-CN03 (Figure 2). Viability of the cells was assessed by an MTT assay that measures cell metabolic activity. […]
661W-A11 cells were seeded in 96-well plates at a density of 6000 cells/well, and the following day they were treated with scaling concentrations of either CN03-Na^+, CN03, SP-CN03, oxo-CN03, or dithio-CN03 for 48 h. […] Cell viability was assessed with MTT (3-(4,5-dimethylthiazol-2-yl)-2,5-diphenyl tetrazolium bromide, Sigma). […] The crystals were shaken for 10 min to dissolve and the optical density (OD) was measured at a wavelength of 570 nm.

Molecules are shown by their SMILES.

Data on 1 molecule can be found in PMC11129186, “New Improved cGMP Analogues to Target Rod Photoreceptor Degeneration” (Journal of Medicinal Chemistry, 2024).

A word on the EC50: it is the concentration that produces a half-maximal response.

On to `CCN(CC)CC.O=c1c2nc(Br)n([C@@H]3O[C@@H]4COP(=S)(S)O[C@H]4[C@H]3O)c2nc2[nH]c(-c3ccccc3)cn12` (stereo partly drawn) [dithio-CN03, Triethylammonium 8-Bromo-β-phenyl-1,N^2-ethenoguanosine-3′,5′-cyclicmonophosphorodithioate], for which the “cell viability reached at the highest doses” value in data set [1] (200 μM zaprinast for 48 h, MTT) is reported as approximately 100%. In addition, the EC50 in data set [1] (Mus musculus, 661W-A11, 48 h, read-out: EC50 of cell viability) turned out to be 20 µM. Moreover, in the data set with 661W-A11 cells, the “toxicity (cell viability, MTT)” value is recorded as “lowest toxicity”.
